Assay results: US6800659B2, “Compounds for modulating cell proliferation” (HSC Research and Development Limited Partnership, priority 2000, dated 2004)

Tests used:
Format in all cases: cell-based
[1] = test system: OCl-AML-3 cells; assay: In vitro purging of OCl-AML-3 acute myeloid leukemia cells; details: 2.5-5 hours exposure (FIG. 17)
Procedure: (§1) For the purging assay, the cells were resuspended in complete medium with or without CR4 as indicated and incubated at 37° C., 5% CO2 for 0-5 hours. Cells were then washed thoroughly with medium to remove CR4, resuspended and plated in 1 ml volumes at 5×10^3 cells/ml, in the absence of exogenous growth factors, into 35 mm petri dishes (Nunc, Gibco) containing alpha MEM (Gibco) plus 10% FCS (Cansera Rexdale, ON.) in 0.9% (vol/vol) methylcellulose (Fluka, Switzerland). Cultures were set at 37° C., 5% CO2 in a humidified atmosphere. Colonies consisting of more than 20 cells were counted at 5 days or earlier using an inverted microscope.

[2] = test system: OCl-AML-3 acute myeloid leukemia cells; assay: Colony growth of AML-3 cells in methylcellulose culture; details: 300-600 nM; colonies at 5-6 days (FIG. 4)
Procedure: OCl-AML-3 cells were plated in 35 mm petri dishes (Nunc, Gibco) in 1 ml volumes at a density of 3.3×10^3 cells/ml, in the absence of exogenous growth factors, containing alpha MEM plus 20% FCS (Cansera, Rexdale Ont.), and 0.9% (vol/vol) methylcellulose (Fluka, Switzerland) and the indicated concentrations of CR4. Cell cultures were incubated in a humidified atmosphere at 37° C. with 5% CO2. Colonies containing more than 20 cells were scored, using an inverted microscope, at 5-6 days.

[3] = test system: Ramos B cell Burkitt's lymphoma cells; assay: In vitro purging of Ramos B cell Burkitt's lymphoma cells; details: 50 μM, 5 hours exposure (FIG. 18)
Procedure: as §1, with “remove the” for “remove”, “ml volumes,” for “ml volumes at 5×10^3 cells/ml,”, “containing RPMI 1640” for “containing alpha MEM”, “at 12” for “at 5”

[4] = test system: normal bone marrow cells; assay: In vitro purging of normal bone marrow, then colony assay
Procedure: Heparinized bone marrow cells were layered over Percoll (1.077 gm/ml) (Pharmacia Fine Chemical, Piscataway N.J.) and centrifuged at 400 g at 4° C. for 10 minutes to remove neutrophils and RBCs.
For the purging process, the cells were resuspended at 1×10^6/ml in complete medium with or without 50 μM CR4. The cells were incubated with the CR4 for two and a half hours at 37° C., 5% CO2. At the end of this period the cells were thoroughly washed in medium to remove CR4 and then cultured at 2×10^5 cells/ml in IMDM (OCl, Toronto) containing 0.9% (vol/vol) methylcellulose supplemented with 30% FCS (Cansera Rexdale, ON.) or normal human plasma, a cocktail of cytokines containing G-CSF (10 ng/ml, Amgen), IL-3 (40 U/ml, Immunex), MGF (50 ng/ml, Immunex), Etryhropoietin (2 u/ml, Epprex) or TPO (10 ng/ml, Amgen) and 5×10^−5M b-2-mercaptoethanol. The culture mixture was plated in 1 ml volumes into 35 mm petri dishes and incubated at 37° C., 5% CO2 in a humidified atmosphere. All cultures were evaluated at 14 days for the number of BFU-E colonies (defined as aggregates of more than 500 hemaglobinized cells or, 3 or more erythroid subcolonies), CFU-C colonies (defined as granulocyte or monocyte-macrophage cells or both) and CFU-GEMM colonies (a mixed population comprising of all elements).
For the purging process, the cells were resuspended at 1×10^6/ml in complete medium with or without 50 μM CR11. The cells were incubated with the tryrphostin for seven hours at 37° C., 5% CO2. At the end of this period the cells were thoroughly washed in medium to remove CR11 and then cultured at 2×10^5 cells/ml in IMDM (OCl, Toronto) containing 0.9% (vol/vol) methylcellulose supplemented with 30% FCS (Cansera Rexdate, ON.) or normal human plasma, a cocktail of cytokines containing G-CSF (10 ng/ml, Amgen), IL-3 (40 U/ml, Immunex), MGF (50 ng/ml, Immunex), Erythropoietin (2 u/ml, Epprex) or TPO (10 ng/ml, Amgen) and 5×10^−5M β-2-mercaptoethanol. The culture mixture was plated in 1 ml volumes into 35 mm petri dishes and incubated at 37° C., 5% CO2 in a humidified atmosphere. All cultures were evaluated at 14 days for the number of BFU-E colonies (defined as aggregates of more than 500 hemoglobinized cells or, 3 or more erythroid subcolonies), CFU-C colonies (defined as granulocyte or monocyte-macrophage cells or both) and CFU-GEMM colonies (a mixed population comprising of all elements).

[5] = test system: OCl-LY2 lymphoma cells; assay: In vitro purging of OCl-Ly2 lymphoma cells; details: 5 hours exposure (FIG. 16)
Procedure: as §1, with “IMDM (OCl, Toronto)” for “alpha MEM (Gibco)”, “20% human cord blood plasma” for “10% FCS (Cansera Rexdale, ON.)”

[6] = two and a half hours exposure to 50 μM (FIG. 14)

Which “killing of OCl-AML-3 cells” value ([1]; 25 μM) does the source give for `N#C/C(=C\C=C\c1ccc(O)c(O)c1)C(=O)NCc1ccccc1` [CR4, (E,E)-2-(benzylaminocarbonyl)-3-(3,4-dihydroxystyryl)acrylonitrile] here?
The value was “significant killing”.

What about the “killing of OCl-AML-3 cells” value ([1]; 50 μM) of the same compound?
The value was “significant killing”.

And the “inhibition of AML-3 cell proliferation and survival” value [2]?
Its value is “complete inhibition”.

And the “killing of Ramos cells” value [3]?
The value was 70%.

And the “normal bone marrow growth and differentiation” value ([4]; identical doses and times: 25-50 μM, 2.5 to 5 hour exposure)?
Its value is “unaffected”.

And the BFU-E colonies [4, 6]?
Its BFU-E colonies is “slight drop”.

What about the CFU-C colony numbers [4, 6] of the same compound?
The CFU-C colony numbers was “increased significantly”.

What about the “inhibition of colony formation” value ([4]; two and a half hours exposure to 50 μM, colonies at 14 days (FIG. 14)) of the same compound?
Its value is “did not result in significant inhibition”.

What about the “killing of OCl-Ly2 cells” value ([5]; 12.5 μM) of the same compound?
Its value is “significant killing”.

What about the “killing of OCl-Ly2 cells” value ([5]; 25-50 μM) of the same compound?
The value was 90%.
